Columns and labels:
HIV-1 = assay: Viral load by FDA approved Real-Time PCR test (Abbott m2000) in HIV-1 infected MT-4 cells; type: cell-based, HIV-1 subtype B; conditions: acute infected MT-4 cells with HIV-1, treated at MNC 0.01 mM
Protocol: The preparation of the MT-4 cell line and HIV-1 culture was the same as in previously described studies. Monitoring of the amount of virions during anti-viral analysis by measuring of the viral load with FDA approved test was performed as follows: The study was conducted with Real-Time polymerase chain reaction (PCR) test for in vitro quantitative assay of HIV-I with automated system Abbott Molecular's m2000, approved by the United States (US) Food and Drug Administration (FDA), and with the CE mark. Extraction of viral nucleic acid was carried out with an automatic extractor with magnetic particles—Abbott Molecular's m2000sp and Real-Time amplification; detection was performed with m2000rt. The sensitivity and range of the test was 40 (1.6 log copies/ml) to 10,000,000 (7.0 log copies/ml) copies/ml by the extraction of 1 ml of sample. The target region of the viral genome was a fragment of the integrase gene pol. The test was designed to detect HIV-1 subtypes A-H, group […] and N. In every test sample, an internal control was placed.
The study included three controls: negative, low positive, and high positive with the following result: • (i) negative control—result negative (not detected); • (ii) low positive control—result 938 copies/ml (2.97 log) control levels; and • (iii) high positive control—result 92,927 copies/ml (4.97 log) control levels. […]

[1] = system: replication of HIV-1 in the infected MT-4 cells (endogenous RT); assay: Endogenous RT activity in culture fluid of HIV-1 infected MT-4 cells (HS-Lenti RT activity kit); type: cell-based, HIV-1 subtype B; conditions: for inhibition at 0.1 µM: 0.0001 mM; for inhibition at 5 µM: 0.005 mM; for inhibition at 10 µM: 0.01 mM
Protocol: Furthermore, antiviral activity of compound 1 was studied on reverse transcriptase (RT) activity to elucidate potential mechanism of its antiviral action. This was done by using MT-4 cell line which […] with HIV-1. Source of HIV-1 culture fluid was chronically infected and producing HIV-1 subtype B cell line H9/HTLV III B.
Reverse transcriptase (RT) activity was determined: • (a) in the culture fluid of infected HIV-1 MT-4 cells at 72 hours after their infection (viral control); • (b) in the culture fluid of non-infected with HIV-1 cells at 72 hours and culturing without the addition of any substance (cell control); and • (c) in the culture fluid infected with HIV-1 MT-4 cells at 72 hours after infecting them, in which the desired concentration of the test compound 1 or the control compound 2 to the growth medium was added.
RT activity was determined according to the instructions of the producer. Separately was reported RT activity of standard recombinant reverse transcriptase (rRT), available in every kit. It was prepared 12-fold dilutions of the standard rRT. The manufacturer provides data on the amount of rRT in pg/well and pg/ml for each 12-fold dilution. The method used represents colorimetric method for non-radioactive determination of RT activity. It includes two stages: • (1) the synthesis of reverse transcript at the 3- or 24-hours incubation at 33° C. (which was determined experimentally); and • (2) quantitative determination of the resulting product.
In the synthesis of DNA using bromine deoxyuridine triphosphate (Brd UTP), which enter into the composition of the reaction mixture. It is included in the structure of the matrix/primer making up the DNA chain. Determination of incorporated Brd UTP was done by tracer-antibody Brd UTP, conjugated to the enzyme alkaline phosphatase. Followed colorimetrically determining the absorbance at A405 nm, which is proportional to the RT activity in the sample. According to the manufacturer, RT activity was considered positive when A405 values for the sample exceeded at least 2 times the values of A405 for negative control. Otherwise the sample was reported as such lacking RT activity, i.e. negative. The test was done by comparing the RT activity in the virus controls (100%) reported with viral RT activity in the wells treated with the test substance in the different concentrations in strict absence of RT activity in control cells. Percent inhibition of replication using the RT test was expressed as the difference between 100% (positive viral control without inhibitor) and % reported RT activity in the wells treated with the inhibitor (compounds 1 or 2) at various concentrations.
The measurement of RT activity is a widespread method for the quantitative determination of retroviruses replication. In the experimental set-up, primarily endogenous activity in supernatants was measured, i.e. in the culture fluid of virus infected cells and treated/untreated with inhibitor at 72 hours after cultivation.
For the control, commonly used substance with proven antiviral activity was employed; in our case, we used Kivexa, which contains 600 mg Abacavir and 300 mg of Lamivudine, which is applied in clinical practice as nucleoside inhibitor of RT. In the presence of RT inhibition in the test, it is concluded that not only the replication of the virus is inhibited, but also probably the target of the inhibitory effect is RT itself. To confirm this conclusion, it is necessary that percentage (%) of inhibition of the RT coincides with the % inhibition in the microtiter MTT assay. […] Reaction mixture supplemented with inhibitor was prepared at desired concentration for the assay, and then, to the mixture, recombinant RT was added with a known activity and concentration. After incubation, we determined whether the activity of the enzyme shall be amended (inhibited) by action of the compounds 1 or 2. […]

[2] = Human immunodeficiency virus 1, MT4, endogenous RT in culture liquid

| Compound | Viral load (log) (HIV-1) | inhibition at 0.001 µM ([1]; Human immunodeficiency virus 1, MT4, endogenous RT in culture liquid, 0.000001 mM) [%] | inhibition at 0.01 µM ([1]; Human immunodeficiency virus 1, MT4, endogenous RT in culture liquid, 0.00001 mM) [%] | inhibition at 0.1 µM [1, 2] [%] | inhibition at 5 µM [1, 2] [%] | inhibition at 10 µM [1, 2] [%] | inhibition of HIV-1 infectivity in MT-4 cells ([1]; Table 4) [%] | inhibition at 1 µM ([1]; Human immunodeficiency virus 1, MT4, endogenous RT in culture liquid, 0.001 mM) [%] |
| --- | --- | --- | --- | --- | --- | --- | --- | --- |
| O=c1oc2cc(O)cc(O)c2c(O)c1-c1coc2c1c(=O)oc1cc(O)cc(O)c12 [Compound 1, 7,9-dihydroxy-3-(4,5,7-trihydroxy-2-oxo-2H-chromene-3-yl)-4H-furo[3,2-c]chromen-4-one] | (3.01 log) | 1.3 | 50.7 | 55 | 76.6 | 89 | > 89 | – |
| O=c1oc2cc(O)c(O)cc2c(O)c1-c1coc2c1c(=O)oc1cc(O)c(O)cc12 [Compound 2, 7,8-dihydroxy-3-(4,6,7-trihydroxy-2-oxo-2H-chromen-3-yl)-4H-furo[3,2-c]chromen-4-one, reference compound] | (3.09 log) | – | – | 0 | 51 | 56.3 | – | 25.7 |
